Measured values as given in the NIST ThermoML archive (doi:10.1021/acs.jced.8b00979).
± gives the expanded uncertainty stated by the source.

Assays:
[1] = 100 kPa, Liquid; for viscosity: Capillary tube (Ostwald / Ubbelohde) method; for mass density: Vibrating tube method
[2] = xn = mol fraction of the nth substance listed; details: 100 kPa, Liquid, x1 = 1; for viscosity: Capillary tube (Ostwald / Ubbelohde) method; for mass density: Vibrating tube method

CCC(C)CO (stereo not drawn) [2-methyl-1-butanol]
[1]
Details	mass density [kg/m3]	viscosity [mPa·s]
288.15 K	823.35 ± 0.8	6.439 ± 0.26
293.15 K	819.64 ± 0.79	5.3 ± 0.21
298.15 K	815.85 ± 0.79	4.501 ± 0.18
303.15 K	812.12 ± 0.79	3.825 ± 0.15
308.15 K	808.29 ± 0.78	3.265 ± 0.13
313.15 K	804.41 ± 0.78	2.783 ± 0.11
318.15 K	800.47 ± 0.78	2.379 ± 0.096
323.15 K	796.47 ± 0.77	2.06 ± 0.083
328.15 K	792.41 ± 0.77	1.787 ± 0.072

CCCCCO [pentan-1-ol]
[1]
Details	mass density [kg/m3]	viscosity [mPa·s]
288.15 K	818.56 ± 0.79	4.698 ± 0.19
293.15 K	814.92 ± 0.79	4.043 ± 0.16
298.15 K	811.26 ± 0.79	3.501 ± 0.14
303.15 K	807.57 ± 0.78	3.028 ± 0.12
308.15 K	803.86 ± 0.78	2.671 ± 0.11
313.15 K	800.11 ± 0.78	2.335 ± 0.094
318.15 K	796.32 ± 0.77	2.052 ± 0.083
323.15 K	792.48 ± 0.77	1.81 ± 0.073
328.15 K	788.61 ± 0.76	1.607 ± 0.065

CCCCCO [pentan-1-ol] + CCC(C)CO
[2]
Details	mass density [kg/m3]	viscosity [mPa·s]
288.15 K	818.56 ± 0.79	4.698 ± 0.19
293.15 K	814.92 ± 0.79	4.043 ± 0.16
298.15 K	811.26 ± 0.79	3.501 ± 0.14
303.15 K	807.57 ± 0.78	3.028 ± 0.12
308.15 K	803.86 ± 0.78	2.671 ± 0.11
313.15 K	800.11 ± 0.78	2.335 ± 0.094
318.15 K	796.32 ± 0.77	2.052 ± 0.083
323.15 K	792.48 ± 0.77	1.81 ± 0.073
328.15 K	788.61 ± 0.76	1.607 ± 0.065

CCCCCO [pentan-1-ol] + CCCC(C)O
[2]
Details	mass density [kg/m3]	viscosity [mPa·s]
288.15 K	818.56 ± 0.79	4.698 ± 0.19
293.15 K	814.92 ± 0.79	4.043 ± 0.16
298.15 K	811.26 ± 0.79	3.501 ± 0.14
303.15 K	807.57 ± 0.78	3.028 ± 0.12
308.15 K	803.86 ± 0.78	2.671 ± 0.11
313.15 K	800.11 ± 0.78	2.335 ± 0.094
318.15 K	796.32 ± 0.77	2.052 ± 0.083
323.15 K	792.48 ± 0.77	1.81 ± 0.073
328.15 K	788.61 ± 0.76	1.607 ± 0.065

CCCC(C)O (stereo not drawn) [pentan-2-ol]
[1]
Details	mass density [kg/m3]	viscosity [mPa·s]
288.15 K	813.34 ± 0.79	5.057 ± 0.2
293.15 K	809.38 ± 0.78	4.174 ± 0.17
298.15 K	805.35 ± 0.78	3.398 ± 0.14
303.15 K	801.24 ± 0.78	2.82 ± 0.11
308.15 K	797.05 ± 0.77	2.336 ± 0.094
313.15 K	792.78 ± 0.77	1.99 ± 0.08
318.15 K	788.42 ± 0.77	1.706 ± 0.069
323.15 K	783.99 ± 0.76	1.472 ± 0.06
328.15 K	779.46 ± 0.76	1.306 ± 0.053

CCCC(C)O (stereo not drawn) [pentan-2-ol] + CCC(C)CO
[2]
Details	mass density [kg/m3]	viscosity [mPa·s]
288.15 K	813.34 ± 0.79	5.057 ± 0.2
293.15 K	809.38 ± 0.78	4.174 ± 0.17
298.15 K	805.35 ± 0.78	3.398 ± 0.14
303.15 K	801.24 ± 0.78	2.82 ± 0.11
308.15 K	797.05 ± 0.77	2.336 ± 0.094
313.15 K	792.78 ± 0.77	1.99 ± 0.08
318.15 K	788.42 ± 0.77	1.706 ± 0.069
323.15 K	783.99 ± 0.76	1.472 ± 0.06
328.15 K	779.46 ± 0.76	1.306 ± 0.053
